According to US7429396B2, “Antifungal composition, its fungicidal effect on pathogenic dermatophytes, and process for inhibiting growth of fungi” (Bio-Botanica, Inc., priority 2003, dated 2008):
≈ marks a conversion by molar mass, not a printed value.

Legend:
Assay type in all cases: cell-based
[1] = tested on: all organisms (Epidermophyton floccosum, Trichophyton mentagrophytes, Microsporum canis); assay: Macrodilution broth MIC/MFC, all dermatophytes tested (Example 4); settings: for MIC: all dermatophytes
Experimental: (§1) The organisms used included Epidermophyton floccosum ATCC 52066, Trichophyton mentagrophytes ATCC 9533, and Microsporum canis ATCC 36299. The molds were cultured on Oatmeal Agar slants to allow for conidial formation and incubated for 7 days at 25° C. For each mold, 5 ml of sterile 0.85% NaCl was added to each slant, the culture surface was rubbed with a sterile wooden applicator stick, and the suspension was then transferred to a sterile tube. By comparison to the McFarland 0.5 turbidity standard, the suspension was adjusted by adding sterile 0.85% NaCl as necessary. The resulting suspension was c.1×10^8 CFU/ml. Then 300 μl of organism suspension was added to 10 ml of sterile saline, diluting it to c.1×10^6 CFU/ml.
(§2) The Macrodilution broth method was performed using serial two-fold dilutions of RPMI-1640 (Sigma) with L-glutamine but without sodium bicarbonate.
(§3) Six 18×150 tubes of RPMI-1640 were used for each organism tested. Starting with tube 1 containing 20 ml RPMI labeled as 0.250 μl/ml and then tubes 2 through 6 containing 10 ml RPMI labeled as 0.125 μl/ml, 0.06 μl/ml, 0.03 μl/ml, 0.015 μl/ml, and 0.008 μl/ml respectively. • 1. 26 μl of each product of Examples 1-3 was added to 1000 μl DMSO. The final concentration of DMSO is kept below 1%. • 2. 200 μl of the sample dilution (26 μl/ml) was added to tube 1 (20 ml of RPMI-1640) making an initial concentration of 0.250 μl/ml. • 3. A serial dilution was performed, pipetting 10 ml from tube 1 to tube 2; continuing the dilution to tube 6.
(§4) For the Clotrimazole, Mycelex® and Ciclopirox Olamine, ten 18×150 tubes of RPMI-1640 were used for each organism tested. Starting with tube 1 containing 20 ml RPMI labeled 16 μg/ml and then tubes 2 through 10 containing 10 ml RPMI labeled as 8.0 μg/ml, 4.0 μg/ml, 2.0 μg/ml, 1.0 μg/ml, 0.50 μg/ml, 0.25 μg/ml, 0.125 μg/ml, 0.06 μg/ml and 0.03 μg/ml respectively. • 1. 160 mg of active ingredient was added to 100 ml DMSO. • 2. 200 μl of the sample dilution (1600 μg/ml) was added to tube 1 (20 ml of RPMI-1640) making an initial concentration of 16 μg/ml. • 3. A serial dilution was performed, pipetting 10 ml from tube 1 to tube 2; continuing the dilution to tube 10. Inoculation and Incubation
(§5) Once the tubes were arranged according to product, concentration and mold type, 300 μl of appropriate mold inoculum was added to each tube and the tubes were then placed in an incubator at 35° C. along with a purity plate for inoculum verification for each mold. The final mold inoculum level was c.1×10^4 CFU/ml. As controls, one tube with 10 ml RPMI was used for the “Negative Control”, and 3 tubes with 10 ml RPMI plus 300 μl mold inoculum were used for the positive controls (one for each mold).
(§6) Final results were recorded after 7 days. Growth (G) was noted when there was full growth visible (i.e. the tube appeared as cloudy as the positive control tube). Partial activity (P) was recorded when the broth in the tube was less turbid than the positive control tube. No growth (I) was recorded when there was total inhibition and the broth in the tube appeared clear (in comparison with the negative control tube).
(§7) The MIC measures fungistatic activity as the lowest concentration that will inhibit growth of the mold. […] The MIC for an azole is the lowest concentration capable of inhibiting 80% growth, which would be a result of partial inhibition (P), one dilution below full inhibition.
(§8) The MFC measures the lowest concentration of the test agent that will kill the fungi. The fungicidal activity of the products was determined by subculturing 20 μl from tubes with no visible growth onto properly labeled SDA plates. Also 20 μl from the last tube with growth and 20 μl from the positive control tube were subcultured as controls. All plates were incubated at 25° C. for 14 days. The MFC was recorded as the lowest concentration showing no growth or <3 colonies of growth, which equals 99-99.5% killing activity.

[2] = tested on: Microsporum canis ATCC 36299; assay: Macrodilution broth MIC/MFC test on dermatophytes (Example 4); settings: for MIC: Microsporum canis, ATCC36299, read-out: Minimum Inhibitory Concentration (MIC)
Experimental: as §1, §2, §3, §4, §5, §6, §7, §8

[3] = tested on: Epidermophyton floccosum ATCC 52066; assay: as above; settings: for MIC: Epidermophyton floccosum, ATCC52066, read-out: Minimum Inhibitory Concentration (MIC)
Experimental: as §1, §2, §3, §4, §5, §6, §7, §8

[4] = tested on: Trichophyton mentagrophytes ATCC 9533; assay: as above; settings: for MIC: Trichophyton mentagrophytes, ATCC9533, read-out: Minimum Inhibitory Concentration (MIC)
Experimental: as §1, §2, §3, §4, §5, §6, §7, §8

| Compound | MIC to Inhibit all organisms [1] [%] | concentration at which still unable to kill the dermatophytes (MFC) [1] | fungistatic or fungicidal activity [1] | MIC [1] [µg/mL] | growth score, MIC test ([2]; 8.0 μg/ml) | growth score, MIC test ([2]; 16.0 μg/ml) | MIC [2] [µg/mL] | growth score, MIC test ([3]; 8.0 μg/ml) | growth score, MIC test ([3]; 16.0 μg/ml) | MIC [3] [µg/mL] | growth score, MIC test ([4]; 16.0 μg/ml) | MIC [4] [µg/mL] | also measured |
| --- | --- | --- | --- | --- | --- | --- | --- | --- | --- | --- | --- | --- | --- |
| Clc1ccccc1C(c1ccccc1)(c1ccccc1)n1ccnc1 [Clotrimazole] | 0.000006 | greater than 4 μg/ml | fungistatic not fungicidal | 0.06 (≈ 0.174 µM) | I | I | 0.06 (≈ 0.174 µM) | I | I | 0.06 (≈ 0.174 µM) | I | 0.06 (≈ 0.174 µM) | growth score, MIC test ([2]; 0.125 μg/ml): I; growth score, MIC test ([2]; 0.250 μg/ml): I; growth score, MIC test ([2]; 0.50 μg/ml): I; growth score, MIC test ([2]; 1.0 μg/ml): I; growth score, MIC test ([2]; 2.0 μg/ml): I; growth score, MIC test ([2]; 4.0 μg/ml): I; growth score, MIC test ([3]; 0.125 μg/ml): I; growth score, MIC test ([3]; 0.250 μg/ml): I; growth score, MIC test ([3]; 0.50 μg/ml): I; growth score, MIC test ([3]; 1.0 μg/ml): I; growth score, MIC test ([3]; 2.0 μg/ml): I; growth score, MIC test ([3]; 4.0 μg/ml): I; growth score, MIC test ([4]; 0.125 μg/ml): I; growth score, MIC test ([4]; 0.250 μg/ml): I; growth score, MIC test ([4]; 0.50 μg/ml): I; growth score, MIC test ([4]; 1.0 μg/ml): I; growth score, MIC test ([4]; 2.0 μg/ml): I; growth score, MIC test ([4]; 4.0 μg/ml): I; growth score, MIC test ([4]; 8.0 μg/ml): I |
| Cc1cc(C2CCCCC2)n(O)c(=O)c1 [Ciclopirox Olamine] | 0.0016 | greater than 32 μg/ml | fungistatic not fungicidal | 16 (≈ 77.2 µM) | I | I | 4 (≈ 19.3 µM) | I | I | 8 (≈ 38.6 µM) | I | 16 (≈ 77.2 µM) | – |
